# Test results published in paper PMC9221546, “New Phenylglycinamide Derivatives with Hybrid Structure as Candidates for New Broad-Spectrum Anticonvulsants” (Cells, 2022).
# Read-outs that look alike come from different tables or passages of the source.
# Assays:
# [1] = tested on: MES-induced seizures in mice; conditions: i.p., pretreatment 1.0 h; cited from earlier work
# Na+ channel (site 2) = Na+ channel (site 2) radioligand binding; conditions: 100 µM; rat cerebral cortex
# TRPV1 (VR1) (h) = biological target: T1, TRPV1 (VR1) (h) (Homo sapiens, UniProt Q8NER1); test: TRPV1 (VR1) (h) antagonist effect functional assay; assay type: cell-based; conditions: human recombinant CHO cells, read-out: % Inhibition of control agonist response, TRPV1 (antagonist effect)
# T1 construct: host or cells: CHO
# T1 sequence (Q8NER1 whole entry): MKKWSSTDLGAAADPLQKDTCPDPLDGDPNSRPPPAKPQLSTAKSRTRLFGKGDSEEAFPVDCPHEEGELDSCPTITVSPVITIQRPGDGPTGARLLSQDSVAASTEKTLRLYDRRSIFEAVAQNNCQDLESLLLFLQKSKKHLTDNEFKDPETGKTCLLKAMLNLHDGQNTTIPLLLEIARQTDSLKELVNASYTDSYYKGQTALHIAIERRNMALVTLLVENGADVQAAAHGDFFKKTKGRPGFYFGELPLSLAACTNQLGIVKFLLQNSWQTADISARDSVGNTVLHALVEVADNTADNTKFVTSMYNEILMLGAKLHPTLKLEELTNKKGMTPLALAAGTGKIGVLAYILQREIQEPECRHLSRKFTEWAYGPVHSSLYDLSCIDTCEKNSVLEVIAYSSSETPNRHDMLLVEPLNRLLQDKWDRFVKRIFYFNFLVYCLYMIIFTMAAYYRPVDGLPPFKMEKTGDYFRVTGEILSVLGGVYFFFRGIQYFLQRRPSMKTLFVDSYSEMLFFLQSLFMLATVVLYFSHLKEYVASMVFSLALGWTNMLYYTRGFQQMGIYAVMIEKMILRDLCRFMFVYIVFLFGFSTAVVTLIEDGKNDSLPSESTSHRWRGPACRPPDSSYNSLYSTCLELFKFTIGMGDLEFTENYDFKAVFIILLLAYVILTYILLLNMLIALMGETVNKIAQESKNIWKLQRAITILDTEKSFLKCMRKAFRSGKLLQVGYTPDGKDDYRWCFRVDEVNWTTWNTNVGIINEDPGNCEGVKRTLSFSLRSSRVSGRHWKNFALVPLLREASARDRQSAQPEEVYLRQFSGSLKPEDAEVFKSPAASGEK
# Method: Binding/functional studies were carried out commercially in Eurofins Laboratories (Poitiers, France) and Eurofins Panlabs Discovery Services Taiwan, Ltd. (New Taipei City, Taiwan) using testing procedures that were reported previously (for details see Table S2).
# Table S2. Radioligand binding and functional assays. […]
# Assays were performed commercially in Eurofins Laboratories (Poitiers, France) or Eurofins Panlabs Discovery Services Taiwan, Ltd. (New Taipei City, Taiwan).
# Table S3. In vitro TRPV1 channel antagonist activity for compounds 45–66 (concentration of 100 µM). […]
# Cmpd % Inhibition of control Cmpd % Inhibition of control agonist responsea agonist responsea
# *Source: human recombinant CHO cells. a Results showing activity higher than 50% are considered to represent […]
# variability of the sign al around the control level. Assays were performed commercially in Eurofins Laboratories
# [2] = biological target: T2, Calcium Cav1.2 channels (dihydropyridine site) (Homo sapiens, UniProt Q13936); test: Calcium Cav1.2 channel binding (dihydropyridine site, antagonist radioligand); conditions: 100 µM; human recombinant HEK-293 cell; read-out: % Inhibition of Control Specific Binding, Cav1.2 (dihydropyridine site)
# T2 construct: host or cells: HEK-293
# T2 sequence (Q13936 whole entry): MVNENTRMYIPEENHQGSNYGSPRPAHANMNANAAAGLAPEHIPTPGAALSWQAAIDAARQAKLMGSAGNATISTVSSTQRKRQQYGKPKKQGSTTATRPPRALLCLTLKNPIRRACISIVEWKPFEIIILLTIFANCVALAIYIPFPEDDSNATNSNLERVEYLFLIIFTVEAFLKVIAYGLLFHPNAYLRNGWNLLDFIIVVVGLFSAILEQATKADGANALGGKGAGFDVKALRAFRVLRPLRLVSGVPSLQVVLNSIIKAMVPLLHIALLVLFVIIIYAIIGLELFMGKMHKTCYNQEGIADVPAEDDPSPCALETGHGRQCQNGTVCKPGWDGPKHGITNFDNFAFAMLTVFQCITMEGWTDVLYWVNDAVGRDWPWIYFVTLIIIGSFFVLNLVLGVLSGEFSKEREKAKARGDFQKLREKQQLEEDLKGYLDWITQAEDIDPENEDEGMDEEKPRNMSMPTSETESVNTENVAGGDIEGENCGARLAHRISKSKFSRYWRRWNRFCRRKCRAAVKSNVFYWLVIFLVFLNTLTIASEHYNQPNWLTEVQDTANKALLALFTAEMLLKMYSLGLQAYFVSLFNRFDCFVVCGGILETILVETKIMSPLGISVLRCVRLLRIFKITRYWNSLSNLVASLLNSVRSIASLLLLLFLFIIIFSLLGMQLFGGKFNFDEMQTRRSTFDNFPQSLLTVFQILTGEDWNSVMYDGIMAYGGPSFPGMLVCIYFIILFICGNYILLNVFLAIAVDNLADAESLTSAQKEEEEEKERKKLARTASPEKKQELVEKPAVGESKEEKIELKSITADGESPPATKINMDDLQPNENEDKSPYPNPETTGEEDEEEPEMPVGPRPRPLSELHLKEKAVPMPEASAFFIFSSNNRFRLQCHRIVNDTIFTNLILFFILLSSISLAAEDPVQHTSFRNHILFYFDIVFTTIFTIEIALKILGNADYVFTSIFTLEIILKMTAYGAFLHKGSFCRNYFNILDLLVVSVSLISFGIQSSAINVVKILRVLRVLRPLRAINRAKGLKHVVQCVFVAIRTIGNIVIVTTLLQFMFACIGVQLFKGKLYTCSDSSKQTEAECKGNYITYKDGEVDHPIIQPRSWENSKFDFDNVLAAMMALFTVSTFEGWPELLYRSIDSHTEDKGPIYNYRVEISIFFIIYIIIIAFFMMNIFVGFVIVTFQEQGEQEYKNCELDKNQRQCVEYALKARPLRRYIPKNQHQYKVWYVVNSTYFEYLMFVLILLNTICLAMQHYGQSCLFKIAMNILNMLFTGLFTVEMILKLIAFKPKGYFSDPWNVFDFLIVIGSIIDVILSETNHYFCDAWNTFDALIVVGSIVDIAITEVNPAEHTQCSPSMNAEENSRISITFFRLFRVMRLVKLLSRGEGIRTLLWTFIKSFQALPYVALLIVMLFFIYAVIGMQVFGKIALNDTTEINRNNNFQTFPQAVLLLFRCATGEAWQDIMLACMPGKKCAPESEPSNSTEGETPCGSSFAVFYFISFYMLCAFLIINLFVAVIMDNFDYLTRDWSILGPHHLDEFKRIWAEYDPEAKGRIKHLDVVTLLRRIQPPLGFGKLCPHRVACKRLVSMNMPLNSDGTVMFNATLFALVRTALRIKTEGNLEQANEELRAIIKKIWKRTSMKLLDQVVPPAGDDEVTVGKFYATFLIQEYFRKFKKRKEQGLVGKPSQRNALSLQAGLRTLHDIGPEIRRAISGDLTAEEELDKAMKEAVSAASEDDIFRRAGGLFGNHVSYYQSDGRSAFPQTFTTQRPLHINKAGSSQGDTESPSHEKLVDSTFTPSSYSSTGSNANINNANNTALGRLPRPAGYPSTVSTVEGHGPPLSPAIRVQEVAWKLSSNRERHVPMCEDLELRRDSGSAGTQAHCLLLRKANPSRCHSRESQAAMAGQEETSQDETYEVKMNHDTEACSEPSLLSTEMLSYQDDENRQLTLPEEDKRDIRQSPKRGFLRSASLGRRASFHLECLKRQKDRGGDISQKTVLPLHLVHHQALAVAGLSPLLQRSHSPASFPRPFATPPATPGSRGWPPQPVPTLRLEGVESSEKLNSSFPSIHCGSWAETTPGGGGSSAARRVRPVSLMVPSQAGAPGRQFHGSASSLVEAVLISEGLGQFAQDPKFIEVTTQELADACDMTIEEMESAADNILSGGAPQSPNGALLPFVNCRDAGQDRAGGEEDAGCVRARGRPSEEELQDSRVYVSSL
# T2 sequence (Q08289 whole entry partner): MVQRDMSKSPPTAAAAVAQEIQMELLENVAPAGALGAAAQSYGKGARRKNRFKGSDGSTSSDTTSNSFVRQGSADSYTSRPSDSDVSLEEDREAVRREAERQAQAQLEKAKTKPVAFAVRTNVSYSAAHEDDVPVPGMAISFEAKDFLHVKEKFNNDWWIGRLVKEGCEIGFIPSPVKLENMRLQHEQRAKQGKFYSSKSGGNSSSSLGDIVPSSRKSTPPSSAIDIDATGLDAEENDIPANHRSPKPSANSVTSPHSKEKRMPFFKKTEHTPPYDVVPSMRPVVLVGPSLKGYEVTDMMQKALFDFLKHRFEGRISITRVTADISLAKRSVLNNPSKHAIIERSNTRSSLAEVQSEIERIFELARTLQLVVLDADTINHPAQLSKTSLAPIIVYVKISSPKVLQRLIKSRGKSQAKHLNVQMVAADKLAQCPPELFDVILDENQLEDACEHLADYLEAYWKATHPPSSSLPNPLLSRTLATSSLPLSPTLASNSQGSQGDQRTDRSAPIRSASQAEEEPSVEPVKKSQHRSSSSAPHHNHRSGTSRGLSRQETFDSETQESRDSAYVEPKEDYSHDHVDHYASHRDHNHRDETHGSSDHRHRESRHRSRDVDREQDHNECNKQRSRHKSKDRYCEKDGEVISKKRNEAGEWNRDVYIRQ
# T2 sequence (P54289 25-956 partner limits assumed): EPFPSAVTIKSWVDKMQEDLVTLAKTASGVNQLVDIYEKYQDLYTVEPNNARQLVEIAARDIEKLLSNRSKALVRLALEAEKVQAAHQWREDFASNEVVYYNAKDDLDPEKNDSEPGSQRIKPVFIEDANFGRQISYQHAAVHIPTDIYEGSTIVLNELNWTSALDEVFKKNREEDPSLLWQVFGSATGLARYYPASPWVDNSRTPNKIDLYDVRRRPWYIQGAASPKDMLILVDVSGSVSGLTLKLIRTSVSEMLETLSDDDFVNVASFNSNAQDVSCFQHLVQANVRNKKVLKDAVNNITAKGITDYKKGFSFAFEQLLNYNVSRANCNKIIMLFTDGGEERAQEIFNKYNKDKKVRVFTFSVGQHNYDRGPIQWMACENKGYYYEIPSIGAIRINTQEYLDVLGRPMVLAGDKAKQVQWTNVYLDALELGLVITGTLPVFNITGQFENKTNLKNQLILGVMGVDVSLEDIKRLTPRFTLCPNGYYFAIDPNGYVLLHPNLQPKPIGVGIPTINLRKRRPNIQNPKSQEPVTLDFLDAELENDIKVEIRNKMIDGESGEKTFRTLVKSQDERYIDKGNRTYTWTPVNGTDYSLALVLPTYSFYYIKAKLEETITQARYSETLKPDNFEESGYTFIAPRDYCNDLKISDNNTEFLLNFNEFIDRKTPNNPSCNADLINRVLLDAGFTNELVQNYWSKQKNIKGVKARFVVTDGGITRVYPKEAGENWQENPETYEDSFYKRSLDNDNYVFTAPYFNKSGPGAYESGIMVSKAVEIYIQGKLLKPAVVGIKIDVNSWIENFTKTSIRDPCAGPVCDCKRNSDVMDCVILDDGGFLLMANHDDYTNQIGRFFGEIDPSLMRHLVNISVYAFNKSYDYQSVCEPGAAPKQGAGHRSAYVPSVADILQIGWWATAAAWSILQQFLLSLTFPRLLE
# T2 sequence (P54289 957-1103 partner limits assumed): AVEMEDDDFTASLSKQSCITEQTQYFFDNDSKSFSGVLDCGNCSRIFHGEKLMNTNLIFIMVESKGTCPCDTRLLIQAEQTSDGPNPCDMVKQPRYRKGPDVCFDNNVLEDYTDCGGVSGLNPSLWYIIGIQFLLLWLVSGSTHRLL
# [3] = tested on: 6 Hz (32 mA) seizures in mice; test: 6 Hz (32 mA) psychomotor seizure model; assay type: in vivo; conditions: Mus musculus, ip; for responders at 100 mg/kg: 100 mg/kg i.p., 0.5 h; for ED50: mice, pretreatment time 0.5 h, (95% confidence limits)
# Method: (§1) Adult male Albino Swiss mice that weighed between 22 and 26 g were used in the in vivo studies. They were housed under standardized housing conditions in colony cages and had free access to food as well as tap water. The animals were left to adapt under laboratory conditions for 7 days. All procedures involving animals and their care were performed in accordance with the current European Community and Polish legislation on animal experimentation.
# (§2) In the initial screening studies, four mice per group were randomly assigned to each experimental group (each mouse was used only once). To evaluate the ED50 or TD50 values, 3–4 groups that consisted of eight animals were injected with various doses of tested compounds. The protective indexes (PIs) for the compounds that were investigated and reference ASDs were calculated by dividing the TD50 value, as determined in the chimney test (or rotarod test), by the respective ED50 value, as determined in the MES, scPTZ, or 6 Hz (32 mA or 44 mA) tests (PI = TD50/ED50). The PIs is a measure of the potential therapeutic window of the tested agent.
# (§3) All substances were suspended in Tween 80 (1% aqueous solution) and administered i.p. as a single injection at a dose of 10 mL/kg. On each day of experimentation, fresh solutions were prepared. The results are summarized in Table S1 (screening data) and Table 2 (ED50, TD50, and PI values, see Section 3 Results and Discussion).
# (§4) The detailed in vivo procedures are described elsewhere: the maximal electroshock seizure test (MES), the subcutaneous pentylenetetrazole seizure test (scPTZ), the 6 Hz psychomotor seizure model (32 mA and 44 mA), and the chimney test.
# (§5) The basic animal seizure models such as the MES, 6 Hz (32 mA or 44 mA), and the scPTZ are still a standard in the discovery and development of new ASDs. In vivo screening approaches enable the identification of compounds with unidentified and potentially novel mechanisms of action besides substances with well-established pharmacodynamics. Bearing in mind the aforementioned facts, compounds 45–66 were initially studied in the MES test and in the 6 Hz seizure model (32 mA) after intraperitoneal (i.p.) administration at a screening dose of 100 mg/kg in mice at a time point of 0.5 h (the screening group consisted of four mice, the results obtained are summarized in Table S1). It should be stressed that the MES test is an experimental model of human tonic–clonic epilepsy as well as partial convulsions with or without secondary generalization, the 6 Hz model (32 mA) corresponds to human focal epilepsy, whereas the scPTZ test relates to human generalized absence or myoclonic seizures.
# (§6) We also established the median toxic doses (TD50) in the chimney test 0.5 h post i.p. administration of these compounds. Both the aforementioned parameters enabled the calculation of the protective indexes (PIs).
# [4] = tested on: MES-induced seizures in mice; test: Maximal electroshock seizure (MES) test; assay type: in vivo; conditions: for responders at 100 mg/kg / ED50: Mus musculus, ip; for responders at 100 mg/kg / protection in MES screening: 100 mg/kg i.p., 0.5 h; for responders at 100 mg/kg: read-out: MES screening: number of mice protected/number of mice tested (converted); for protection in MES screening: four mice; for ED50: mice, pretreatment time 0.5 h, (95% confidence limits)
# Method: as §1, §2, §3, §4, §5, §6
# [5] = tested on: scPTZ-induced seizures in mice; test: Subcutaneous pentylenetetrazole (scPTZ) seizure test; assay type: in vivo; conditions: 100 mg/kg i.p., 0.5 h
# Method: as §1, §2, §3, §4, §5
# [6] = four mice, read-out: protection in 6 Hz (32 mA) screening
# [7] = read-out: 6 Hz (32 mA) screening: number of mice protected/number of mice tested (converted)
SMILES,inhibition at 100 µM (TRPV1 (VR1) (h)) [%],"responders at 100 mg/kg [3, 6] [%]","responders at 100 mg/kg [3, 7] [%]",responders at 100 mg/kg [4] [%],melting point [°C],further results
"C=C(C)[C@@H]1CCC(C)=C[C@H]1c1c(O)cc(CCCCC)cc1O [CBD, cannabidiol, reference compound]",48,–,–,–,–,"ED50 MES [1]: 80.0 (65.5−96.0) mg/kg; % Inhibition of Control Specific Binding, Na+ channel (site 2) (Na+ channel (site 2)): 94.8 (100) %; inhibition at 100 µM [2]: 58%"
"CC(=O)NC(C(=O)N1CCN(c2ccccc2Cl)CC1)c1ccccc1 (centres unmarked) [Compound 46, N-(2-(4-(2-chlorophenyl)piperazin-1-yl)-2-oxo-1-phenylethyl)acetamide]",116,50,50,0,–,–
"CC(=O)NC(C(=O)N1CCN(c2ccc(Cl)cc2)CC1)c1ccccc1 (centres unmarked) [Compound 48, N-(2-(4-(4-chlorophenyl)piperazin-1-yl)-2-oxo-1-phenylethyl)acetamide]",127,75,75,25,133.3 to 134.6,ED50 [3]: 60.1 mg/kg; protection in MES screening [4]: 25%; ED50 [4]: > 150 mg/kg
"CC(=O)NC(C(=O)N1CCN(c2ccc(Cl)c(Cl)c2)CC1)c1ccccc1 (centres unmarked) [Compound 49, N-(2-(4-(3,4-dichlorophenyl)piperazin-1-yl)-2-oxo-1-phenylethyl)acetamide]",135,–,25,0,–,–
"CC(=O)NC(C(=O)N1CCN(c2cc(Cl)cc(Cl)c2)CC1)c1ccccc1 (centres unmarked) [Compound 50, N-(2-(4-(3,5-dichlorophenyl)piperazin-1-yl)-2-oxo-1-phenylethyl)acetamide]",128,–,25,0,185.9 to 187.3,–
"CC(=O)NC(C(=O)N1CCN(c2cc(Cl)cc(C(F)(F)F)c2)CC1)c1ccccc1 (centres unmarked) [Compound 51, N-(2-(4-(3-chloro-5-(trifluoromethyl)phenyl)piperazin-1-yl)-2-oxo-1-phenylethyl) acetamide]",-2.5,–,25,0,–,–
"CC(=O)NC(C(=O)N1CCN(c2ccccc2C(F)(F)F)CC1)c1ccccc1 (centres unmarked) [Compound 52, N-(2-oxo-1-phenyl-2-(4-(2-(trifluoromethyl)phenyl)piperazin-1-yl)ethyl)acetamide]",90.9,50,50,0,–,–
"CC(=O)NC(C(=O)N1CCN(c2ccc(C(F)(F)F)cc2)CC1)c1ccccc1 (centres unmarked) [Compound 54, N-(2-oxo-1-phenyl-2-(4-(4-(trifluoromethyl)phenyl)piperazin-1-yl)ethyl)acetamide]",128,50,50,0,–,–
"CC(=O)NC(C(=O)N1CCN(c2cc(C(F)(F)F)cc(C(F)(F)F)c2)CC1)c1ccccc1 (centres unmarked) [Compound 55, N-(2-(4-(3,5-bis(trifluoromethyl)phenyl)piperazin-1-yl)-2-oxo-1-phenylethyl)acetamide]",-14,–,25,0,194.2 to 195.4,–
"CC(=O)NC(C(=O)N1CCN(c2cccc(C)c2)CC1)c1ccccc1 (centres unmarked) [Compound 56, N-(2-oxo-1-phenyl-2-(4-(m-tolyl)piperazin-1-yl)ethyl)acetamide]",57.4,–,25,0,–,–
"CC(=O)NC(C(=O)N1CCN(c2cccc(C(F)F)c2)CC1)c1ccccc1 (centres unmarked) [Compound 57, N-(2-(4-(3-(difluoromethyl)phenyl)piperazin-1-yl)-2-oxo-1-phenylethyl)acetamide]",43.7,–,25,0,–,–
"CC(=O)NC(C(=O)N1CCN(c2cccc(-c3ccccc3)c2)CC1)c1ccccc1 (centres unmarked) [Compound 58, N-(2-(4-([1,1’-biphenyl]-3-yl)piperazin-1-yl)-2-oxo-1-phenylethyl)acetamide]",92,50,50,0,–,–
"COc1cccc(N2CCN(C(=O)C(NC(C)=O)c3ccccc3)CC2)c1 (centres unmarked) [Compound 59, N-(2-(4-(3-methoxyphenyl)piperazin-1-yl)-2-oxo-1-phenylethyl)acetamide]",20.1,–,–,0,–,–
"CC(=O)NC(C(=O)N1CCN(c2cccc(Oc3ccccc3)c2)CC1)c1ccccc1 (centres unmarked) [Compound 61, N-(2-oxo-2-(4-(3-phenoxyphenyl)piperazin-1-yl)-1-phenylethyl)acetamide]",52.5,–,25,0,–,–
"CC(=O)NC(C(=O)N1CCN(c2ncccc2C(F)(F)F)CC1)c1ccccc1 (centres unmarked) [Compound 63, N-(2-oxo-1-phenyl-2-(4-(3-(trifluoromethyl)pyridine-2-yl)piperazin-1-yl)ethyl)acetamide]",-2.8,–,–,0,147.8 to 148.9,–
"CC(=O)NC(C(=O)N1CCN(c2cc(C(F)(F)F)ccn2)CC1)c1ccccc1 (centres unmarked) [Compound 64, N-(2-oxo-1-phenyl-2-(4-(4-(trifluoromethyl)pyridine-2-yl)piperazin-1-yl)ethyl)acetamide]",39.7,–,25,0,91.4 to 92.3,–
"CC(=O)NC(C(=O)N1CCN(c2ccc(C(F)(F)F)cn2)CC1)c1ccccc1 (centres unmarked) [Compound 65, N-(2-oxo-1-phenyl-2-(4-(5-(trifluoromethyl)pyridine-2-yl)piperazin-1-yl)ethyl)acetamide]",8.5,75,75,75,91.2 to 92.4,scPTZ screening: number of mice protected/number of mice tested [5]: 0/4; ED50 [3]: 64.9 mg/kg; protection in MES screening [4]: 75%; ED50 [4]: > 100 mg/kg
"CC(=O)NC(C(=O)N1CCN(c2cccc(C(F)(F)F)n2)CC1)c1ccccc1 (centres unmarked) [Compound 66, N-(2-oxo-1-phenyl-2-(4-(6-(trifluoromethyl)pyridine-2-yl)piperazin-1-yl)ethyl)acetamide]",3.7,50,50,0,151.6 to 152.3,–
